Tests used:
[1] = biological target: T1, Heat shock protein HSP 90-alpha (Homo sapiens, UniProt P07900); experiment: biochemical
Description: Displacement of GM-BODIPY from human full length HSP90 alpha expressed in baculovirus-infected Sf9 cells after 16 hrs by fluorescence polarization assay

[2] = Retention time of the compound; assay type: physicochemical
[3] = biological target: T1, Heat shock protein HSP 90-alpha; experiment: Displacement of GM-BODIPY from human full length HSP90 alpha expressed in baculovirus-infected Sf9 cells at 5 uM after 16 hrs by fluorescence polarization assay
CYP2C9 = CYP2C9 (Homo sapiens, UniProt P11712); experiment: Inhibition of CYP2C9 in human liver microsomes using diclofenac as substrate at 10 uM; assay type: ADME; settings: probe diclofenac
CYP1A2 = biological target: T2, CYP1A2 (Homo sapiens, UniProt P05177); experiment: Inhibition of CYP1A2 in human liver microsomes using phenacetin as substrate at 10 uM; assay type: ADME; settings: probe phenacetin
T2 sequence (P05177 whole entry): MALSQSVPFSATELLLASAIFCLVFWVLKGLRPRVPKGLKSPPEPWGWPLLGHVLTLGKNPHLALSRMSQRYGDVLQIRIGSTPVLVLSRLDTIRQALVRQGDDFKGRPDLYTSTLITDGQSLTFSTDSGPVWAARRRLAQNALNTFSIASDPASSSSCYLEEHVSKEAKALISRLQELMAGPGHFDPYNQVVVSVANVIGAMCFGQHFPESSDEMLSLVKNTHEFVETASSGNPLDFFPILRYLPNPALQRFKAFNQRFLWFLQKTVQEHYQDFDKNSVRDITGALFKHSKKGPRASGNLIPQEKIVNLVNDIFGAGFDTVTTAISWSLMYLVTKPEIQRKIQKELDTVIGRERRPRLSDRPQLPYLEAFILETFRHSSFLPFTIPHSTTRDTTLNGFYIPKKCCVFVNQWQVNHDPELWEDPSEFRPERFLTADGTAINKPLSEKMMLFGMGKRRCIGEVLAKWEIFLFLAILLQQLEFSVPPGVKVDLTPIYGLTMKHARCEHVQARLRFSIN

CYP3A4 = CYP3A4 (Homo sapiens, UniProt P08684); experiment: Inhibition of CYP3A4 in human liver microsomes using midazolam or testosterone as substrate at 10 uM; assay type: ADME; settings: probe midazolam or testosterone
CYP2D6 = CYP2D6 (Homo sapiens, UniProt P10635); experiment: Inhibition of CYP2D6 in human liver microsomes using dextromethorphan as substrate at 10 uM; assay type: ADME; settings: probe dextromethorphan
CYP2C19 = CYP2C19 (Homo sapiens, UniProt P33261); experiment: Inhibition of CYP2C19 in human liver microsomes using mephenytoin as substrate at 10 uM; assay type: ADME; settings: probe mephenytoin
A549 = experiment: Growth inhibition of human A549 cells after 72 hrs by spectrophotometer analysis; assay type: functional; settings: A549, 72 h
[4] = Intrinsic clearance in rat liver microsomes at 1 uM after 5 mins by LC-MS/MS analysis; assay type: ADME; settings: read-out: CLH
HCT-116 = experiment: Growth inhibition of human HCT116 cells after 72 hrs by spectrophotometer analysis; assay type: functional; settings: HCT-116, 72 h
[5] = Growth inhibition of human NCI-H3122 cells after 72 hrs by spectrophotometer analysis; assay type: functional; settings: NCI-H3122, 72 h
[6] = Growth inhibition of human BT474 cells after 72 hrs by spectrophotometer analysis; assay type: functional; settings: BT-474, 72 h
[7] = Intrinsic clearance in human liver microsomes at 1 uM after 5 mins by LC-MS/MS analysis; assay type: ADME; settings: read-out: CLH
[8] = biological target: T1, Heat shock protein HSP 90-alpha; experiment: Displacement of GM-BODIPY from human full length HSP90 alpha expressed in baculovirus-infected Sf9 cells at 1 uM after 16 hrs by fluorescence polarization assay
Cytochrome P450 2C19 = Cytochrome P450 2C19 (Homo sapiens, UniProt P33261); experiment: Time-dependent inhibition of CYP2C19 in human liver microsomes using mephenytoin as substrate at 10 uM; assay type: ADME; settings: TDE = time-dependent effect
Cytochrome P450 2C19, sequence (P33261 whole entry): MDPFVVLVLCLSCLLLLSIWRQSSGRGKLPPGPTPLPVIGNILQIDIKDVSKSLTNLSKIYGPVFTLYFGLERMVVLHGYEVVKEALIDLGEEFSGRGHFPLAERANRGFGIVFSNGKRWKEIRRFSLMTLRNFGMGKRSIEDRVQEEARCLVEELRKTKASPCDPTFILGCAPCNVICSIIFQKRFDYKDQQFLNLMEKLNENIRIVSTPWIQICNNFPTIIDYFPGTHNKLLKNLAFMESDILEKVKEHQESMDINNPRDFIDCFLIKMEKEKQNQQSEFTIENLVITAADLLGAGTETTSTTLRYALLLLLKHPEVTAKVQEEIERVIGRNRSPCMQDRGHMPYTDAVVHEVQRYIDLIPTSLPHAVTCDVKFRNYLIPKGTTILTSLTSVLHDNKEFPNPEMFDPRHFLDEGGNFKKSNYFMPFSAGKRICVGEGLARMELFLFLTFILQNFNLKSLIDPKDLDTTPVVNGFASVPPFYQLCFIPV

CYP2D6, sequence (P10635 whole entry): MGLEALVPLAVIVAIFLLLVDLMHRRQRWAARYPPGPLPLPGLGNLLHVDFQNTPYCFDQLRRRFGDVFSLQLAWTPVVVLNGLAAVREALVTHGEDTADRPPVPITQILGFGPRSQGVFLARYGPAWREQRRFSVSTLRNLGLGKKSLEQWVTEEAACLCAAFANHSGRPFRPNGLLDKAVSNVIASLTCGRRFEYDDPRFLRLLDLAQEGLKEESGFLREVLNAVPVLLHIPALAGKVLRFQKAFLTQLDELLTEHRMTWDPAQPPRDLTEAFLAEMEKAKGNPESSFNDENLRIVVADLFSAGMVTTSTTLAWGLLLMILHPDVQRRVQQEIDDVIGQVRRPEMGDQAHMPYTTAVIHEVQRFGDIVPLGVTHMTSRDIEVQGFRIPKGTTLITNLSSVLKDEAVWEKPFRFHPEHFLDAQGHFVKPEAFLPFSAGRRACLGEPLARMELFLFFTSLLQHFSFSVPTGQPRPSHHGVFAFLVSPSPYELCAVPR
CYP3A4, sequence (P08684 whole entry): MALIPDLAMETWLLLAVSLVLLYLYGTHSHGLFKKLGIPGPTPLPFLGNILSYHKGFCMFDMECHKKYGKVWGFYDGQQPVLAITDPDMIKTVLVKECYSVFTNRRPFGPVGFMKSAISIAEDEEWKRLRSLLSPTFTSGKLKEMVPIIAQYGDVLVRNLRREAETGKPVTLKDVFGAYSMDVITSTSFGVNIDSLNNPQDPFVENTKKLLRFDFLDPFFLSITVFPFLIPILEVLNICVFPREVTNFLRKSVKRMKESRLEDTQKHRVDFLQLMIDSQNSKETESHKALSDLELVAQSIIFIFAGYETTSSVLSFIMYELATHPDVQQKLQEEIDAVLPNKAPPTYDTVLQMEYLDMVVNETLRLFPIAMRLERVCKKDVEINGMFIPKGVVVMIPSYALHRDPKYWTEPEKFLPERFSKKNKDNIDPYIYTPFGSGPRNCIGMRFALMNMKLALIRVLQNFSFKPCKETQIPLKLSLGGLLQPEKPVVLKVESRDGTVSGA
CYP2C19, sequence (P33261 whole entry): as the sequence (P33261 whole entry) above
CYP2C9, sequence (P11712 whole entry): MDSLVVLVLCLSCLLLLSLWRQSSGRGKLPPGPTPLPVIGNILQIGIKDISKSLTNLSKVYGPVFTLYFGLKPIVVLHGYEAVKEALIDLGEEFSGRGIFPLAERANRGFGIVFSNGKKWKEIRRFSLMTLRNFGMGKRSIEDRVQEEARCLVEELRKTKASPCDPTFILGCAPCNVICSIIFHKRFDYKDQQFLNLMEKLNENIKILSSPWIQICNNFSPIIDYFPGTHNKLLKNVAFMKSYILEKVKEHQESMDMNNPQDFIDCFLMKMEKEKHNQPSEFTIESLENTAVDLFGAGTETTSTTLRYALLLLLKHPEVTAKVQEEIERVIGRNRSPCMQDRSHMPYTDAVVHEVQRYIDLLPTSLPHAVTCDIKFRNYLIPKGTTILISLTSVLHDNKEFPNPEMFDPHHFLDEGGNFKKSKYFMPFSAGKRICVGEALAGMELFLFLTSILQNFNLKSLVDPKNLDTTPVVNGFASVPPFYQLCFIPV

| SMILES | IC50 [1] | Retention_time [2] | inhibition at 10 µM (CYP2C9) | inhibition at 10 µM (CYP1A2) | inhibition at 10 µM (CYP3A4) | inhibition at 10 µM (CYP2D6) | inhibition at 10 µM (CYP2C19) | microsomal CLint at 1 µM [4] | also measured |
| --- | --- | --- | --- | --- | --- | --- | --- | --- | --- |
| COc1ccc2c(c1)c(CCN)cn2-c1cc(C(=O)N2Cc3ccccc3C2)c(O)cc1O | 1.5 µM | 2.69 min | – | – | – | – | – | – | – |
| Cc1ccc(Nc2cc(C(=O)N3Cc4ccccc4C3)c(O)cc2O)cc1 | 0.071 µM | 3.29 min | 75% | 61% | 38% | 7% | 58% | – | – |
| O=C(c1cc(-n2ccc3ccccc32)c(O)cc1O)N1CCc2ccccc2C1 | 0.13 µM | 3.54 min | – | – | – | – | – | – | – |
| CN1CCN(C(=O)c2cc(-c3nnc4ccc(Br)cn34)c(O)cc2O)CC1 | – | 1.86 min | – | – | – | – | – | – | inhibition [3]: 8.8% |
| O=C(c1cc(Nc2ccc(Cl)cc2Cl)c(O)cc1O)N1Cc2ccccc2C1 | 0.19 µM | 3.87 min | 73% | 40% | 33% | 5% | 23% | 16 µL/min/mg | GI50 (A549): 24.2 µM; GI50 (HCT-116): 10.6 µM; GI50 [5]: 10.1 µM; GI50 [6]: 6.31 µM |
| O=C(c1cc(-n2ccc3ncccc32)c(O)cc1O)N1Cc2ccccc2C1 | 0.13 µM | 2.4 min | – | – | – | – | – | – | – |
| O=C(c1cc(-n2ccc3c(Br)cccc32)c(O)cc1O)N1Cc2ccccc2C1 | 0.07 µM | 3.8 min | 54% | 34% | 22% | 19% | 70% | 49 µL/min/mg | GI50 (A549): 21 µM; GI50 (HCT-116): 12.3 µM; GI50 [5]: 9.67 µM; GI50 [6]: 8.52 µM |
| O=C(c1cc(-n2ccc3ccccc32)c(O)cc1O)N1Cc2ccccc2C1 | 0.038 µM | 3.56 min | 73% | 52% | 17% | 14% | 60% | 25 µL/min/mg | GI50 (A549): 14.3 µM; microsomal CLint at 1 µM [7]: 13 µL/min/mg; GI50 (HCT-116): 10.1 µM; GI50 [5]: 7.53 µM; GI50 [6]: 7.25 µM |
| Cc1ccc2c(ccn2-c2cc(C(=O)N3Cc4ccccc4C3)c(O)cc2O)c1 | 0.038 µM | 3.68 min | 68% | 28% | 4% | 7% | 63% | 42 µL/min/mg | GI50 (A549): 11.1 µM; GI50 (HCT-116): 8.6 µM; GI50 [5]: 7.53 µM; GI50 [6]: 7.07 µM |

Now from value to compound, other results behind:

| IC50 [1] | Retention_time [2] | SMILES | inhibition at 10 µM (CYP2C9) | inhibition at 10 µM (CYP1A2) | inhibition at 10 µM (CYP3A4) | inhibition at 10 µM (CYP2D6) | inhibition at 10 µM (CYP2C19) | microsomal CLint at 1 µM [4] | also measured |
| --- | --- | --- | --- | --- | --- | --- | --- | --- | --- |
| 0.33 µM | 3.45 min | O=C(c1cc(-n2ccc3ccccc32)c(O)cc1O)N1CCc2sccc2C1 | – | – | – | – | – | – | – |
| – | 2.76 min | O=C(c1cc(-c2nnc3ccc(Br)cn23)c(O)cc1O)N1CCc2ccccc2C1 | – | – | – | – | – | – | inhibition [3]: 18.7% |
| – | 3.04 min | COc1ccc2c(c1)c(CCNC(C)=O)cn2-c1cc(C(=O)N2Cc3ccccc3C2)c(O)cc1O | – | – | – | – | – | – | inhibition [8]: 56.9% |
| 0.078 µM | 3.8 min | O=C(c1cc(-n2ccc3cc(Br)ccc32)c(O)cc1O)N1Cc2ccccc2C1 | 78% | 48% | 13% | 32% | 71% | 16 µL/min/mg | microsomal CLint at 1 µM [7]: 18 µL/min/mg |
| – | 2.97 min | O=C(O)Cc1cn(-c2cc(C(=O)N3Cc4ccccc4C3)c(O)cc2O)c2ccccc12 | – | – | – | – | – | – | inhibition [8]: 14.1% |
| 0.13 µM | 3.32 min | COC(=O)c1cccc2c1ccn2-c1cc(C(=O)N2Cc3ccccc3C2)c(O)cc1O | – | – | – | – | – | – | – |
| 0.63 µM | 2.35 min | CN1CCN(C(=O)c2cc(-n3ccc4ccccc43)c(O)cc2O)CC1 | – | – | – | – | – | – | – |
| 0.25 µM | 2.45 min | O=C(c1cc(-n2ccc3cnccc32)c(O)cc1O)N1Cc2ccccc2C1 | – | – | – | – | – | – | – |
| 0.62 µM | 2.74 min | CNC(=O)c1cccc2c1ccn2-c1cc(C(=O)N2Cc3ccccc3C2)c(O)cc1O | – | – | – | – | – | – | – |
| 0.039 µM | 3.45 min | O=C(c1cc(-n2ccc3c([N+](=O)[O-])cccc32)c(O)cc1O)N1Cc2ccccc2C1 | 74% | 47% | 8% | 50% | 89% | 6 µL/min/mg | microsomal CLint at 1 µM [7]: 22 µL/min/mg; inhibition (INH) (Cytochrome P450 2C19): tde |
| 0.021 µM | 3.12 min | O=C(c1cc(Nc2ccccc2)c(O)cc1O)N1Cc2ccccc2C1 | 68% | 72% | 19% | 22% | 52% | 12 µL/min/mg | microsomal CLint at 1 µM [7]: 2 µL/min/mg |

From ChEMBL document CHEMBL3259726, “Identification of a new series of potent diphenol HSP90 inhibitors by fragment merging and structure-based optimization” (Bioorg Med Chem Lett, 2014)
